Patent publication US9415055B2, “Cyclic amines” (H. Lundbeck A/S, priority 2012, dated 2016)
pIC50: −log10 of the molar value.

Molecular target: P2X7 receptor (Homo sapiens (Human), UniProt Q99572)
Experiment: P2X7 FLIPR assay: antagonism of BzATP response in 293 HEK cells stably expressing P2X7 receptor
Format: cell-based
Conditions: FLIPR fluorescence (Fluo-4), agonist BzATP, 293 HEK cells stably transfected with P2X7 receptor
How it was run: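 Antagonist IC50 derived from FLIPR Tetra Fluo-4 calcium signal evoked by BzATP. Compound pre-incubation was 30 min at room temperature on P2X7-expressing HEK293 cells, seeded 24 h before in low-serum medium and dye-loaded 30 min at 37 °C then 30 min at RT.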

Chain of P2X7 receptor (Q99572 whole entry): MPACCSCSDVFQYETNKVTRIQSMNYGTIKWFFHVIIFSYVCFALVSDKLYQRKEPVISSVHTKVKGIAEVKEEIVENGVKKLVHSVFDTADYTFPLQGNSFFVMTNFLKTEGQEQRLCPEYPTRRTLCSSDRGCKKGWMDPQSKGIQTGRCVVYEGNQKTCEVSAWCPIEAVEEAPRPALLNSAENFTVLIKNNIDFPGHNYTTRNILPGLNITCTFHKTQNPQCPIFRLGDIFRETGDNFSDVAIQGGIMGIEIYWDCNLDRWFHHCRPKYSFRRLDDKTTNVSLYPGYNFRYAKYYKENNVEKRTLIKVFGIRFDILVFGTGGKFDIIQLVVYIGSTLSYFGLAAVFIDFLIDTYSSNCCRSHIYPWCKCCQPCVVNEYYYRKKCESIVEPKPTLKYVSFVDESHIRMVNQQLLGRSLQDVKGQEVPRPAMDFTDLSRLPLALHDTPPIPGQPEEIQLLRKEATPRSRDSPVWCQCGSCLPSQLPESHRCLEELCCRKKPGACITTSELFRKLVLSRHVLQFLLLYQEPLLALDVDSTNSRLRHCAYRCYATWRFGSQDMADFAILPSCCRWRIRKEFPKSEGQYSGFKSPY

pIC50	Structure (SMILES)
7.42	Cc1ccc(C(CNC(=O)c2cc(C)ccc2Cl)N2CCOCC2)cc1 (stereo not shown) [2-Chloro-5-methyl-N-(2-morpholin-4-yl-2-p-tolyl-ethyl)-benzamide]
5.52	Cc1ccc(Cl)c(C(=O)NCC(c2cccnc2)N2CCOCC2)c1 (stereo not shown) [2-Chloro-5-methyl-N-(2-morpholin-4-yl-2-pyridin-3-yl-ethyl)-benzamide]
5.57	Cc1ccc(Cl)c(C(=O)NCC(c2ccncc2)N2CCOCC2)c1 (stereo not shown) [2-Chloro-5-methyl-N-(2-morpholin-4-yl-2-pyridin-4-yl-ethyl)-benzamide]
8.74	O=C(NCC(c1ccc(C(F)(F)F)nc1)N1CCC(F)(F)CC1)c1ccccc1Cl (stereo not shown) [2-Chloro-N-[2-(4,4-difluoro-1-piperidyl)-2-[6-(trifluoromethyl)-3-pyridyl]ethyl]benzamide]
9.28	Cc1cccc(C(=O)NC[C@H](c2ccc(Cl)cc2)N2CCOCC2)c1Cl [2-Chloro-N-[(S)-2-(4-chloro-phenyl)-2-morpholin-4-yl-ethyl]-3-methyl-benzamide]
6.48	Cc1ncc(C(CNC(=O)c2cccc(F)c2Cl)N2CCCOCC2)cn1 (stereo not shown) [2-chloro-3-fluoro-N-(2-(2-methylpyrimidin-5-yl)-2-(1,4-oxazepan-4-yl)ethyl)benzamide]
5.92	Cc1ncc(C(CNC(=O)c2cccc(F)c2Cl)N2CCOCC2)cn1 (stereo not shown) [2-chloro-3-fluoro-N-(2-(2-methylpyrimidin-5-yl)-2-morpholinoethyl)benzamide]
7.96	O=C(NCC(c1cnc(C(F)(F)F)nc1)N1CCOCC1)c1cccc(F)c1Cl (stereo not shown) [2-chloro-3-fluoro-N-(2-morpholino-2-(2-(trifluoromethyl)pyrimidin-5-yl)ethyl)benzamide]
6.09	Cc1ncc(C(CNC(=O)c2c(F)cccc2Cl)N2CCCOCC2)cn1 (stereo not shown) [2-chloro-6-fluoro-N-(2-(2-methylpyrimidin-5-yl)-2-(1,4-oxazepan-4-yl)ethyl)benzamide]
6.23	Cc1ncc(C(CNC(=O)c2c(F)cccc2Cl)N2CCOCC2)cn1 (stereo not shown) [2-chloro-6-fluoro-N-(2-(2-methylpyrimidin-5-yl)-2-morpholinoethyl)benzamide]
6.17	Cc1ncc(C(CNC(=O)c2ccccc2Cl)N2CCCOCC2)cn1 (stereo not shown) [2-chloro-N-(2-(2-methylpyrimidin-5-yl)-2-(1,4-oxazepan-4-yl)ethyl)benzamide]
8.55	O=C(NCC(c1cnc(C(F)(F)F)nc1)N1CCC(F)(F)CC1)c1ccccc1Cl (stereo not shown) [2-chloro-N-(2-(4,4-difluoropiperidin-1-yl)-2-(2-(trifluoromethyl)pyrimidin-5-yl)ethyl)benzamide]
8.40	O=C(NCC(c1ccc(F)nc1)N1CCC(F)(F)CC1)c1ccccc1Cl (stereo not shown) [2-chloro-N-[2-(4,4-difluoro-1-piperidyl)-2-(6-fluoro-3-pyridyl)ethyl]benzamide]
5.44	CC1(C)CCN(C(CNC(=O)c2cccc(F)c2Cl)c2cnc(C(F)(F)F)nc2)CC1 (stereo not shown) [2-chloro-N-[2-(4,4-dimethyl-1-piperidyl)-2-[2-(trifluoromethyl)pyrimidin-5-yl]ethyl]-3-fluoro-benzamide]
5.49	Cc1ncc(C(CNC(=O)c2cccc(Cl)c2Cl)N2CC3CCC2C3)cn1 (stereo not shown) [N-(2-(2-azabicyclo[2.2.1]heptan-2-yl)-2-(2-methylpyrimidin-5-yl)ethyl)-2,3-dichlorobenzamide]
7.34	O=C(NCC(c1ccc(Cl)cc1)N1CCC(F)(F)CC1)c1cccc(Cl)c1Cl (stereo not shown) [N-[2-(4-Chloro-phenyl)-2-(4,4-difluoro-piperidin-1-yl)-ethyl]-2,3-dichloro-benzamide]
8.44	Cc1cccc(C(=O)NCC(c2ccc(Cl)cc2)N2CCC(F)(F)CC2)c1C (stereo not shown) [N-[2-(4-Chloro-phenyl)-2-(4,4-difluoro-piperidin-1-yl)-ethyl]-2,3-dimethyl-benzamide]
8.70	Cc1ccccc1C(=O)NCC(c1ccc(Cl)cc1)N1CCC(F)(F)CC1 (stereo not shown) [N-[2-(4-Chloro-phenyl)-2-(4,4-difluoro-piperidin-1-yl)-ethyl]-2-methyl-benzamide]
7.70	Cc1cccc(C(=O)NCC(c2ccc(F)cc2)N2CCOCC2)c1C (stereo not shown) [N-[2-(4-Fluoro-phenyl)-2-morpholin-4-yl-ethyl]-2,3-dimethyl-benzamide]
6.96	Cc1ccccc1C(=O)NCC(c1ccc(F)cc1)N1CCOCC1 (stereo not shown) [N-[2-(4-Fluoro-phenyl)-2-morpholin-4-yl-ethyl]-2-methyl-benzamide]
7.33	COc1ccc(C(CNC(=O)c2cccc(C)c2C)N2CCOCC2)cc1 (stereo not shown) [N-[2-(4-Methoxy-phenyl)-2-morpholin-4-yl-ethyl]-2,3-dimethyl-benzamide]
6.30	COc1ccc(C(CNC(=O)c2ccccc2C)N2CCOCC2)cc1 (stereo not shown) [N-[2-(4-Methoxy-phenyl)-2-morpholin-4-yl-ethyl]-2-methyl-benzamide]
6.38	COc1ccc(C(CNC(=O)c2cccc(C)c2C)N2CCCCC2)cc1 (stereo not shown) [N-[2-(4-Methoxy-phenyl)-2-piperidin-1-yl-ethyl]-2,3-dimethyl-benzamide]
5.41	COc1ccc(C(CNC(=O)c2ccccc2C)N2CCCCC2)cc1 (stereo not shown) [N-[2-(4-Methoxy-phenyl)-2-piperidin-1-yl-ethyl]-2-methyl-benzamide]
8.03	Cc1ccccc1C(=O)NC[C@H](c1ccc(Cl)cc1)N1CCOCC1 [N-[(S)-2-(4-Chloro-phenyl)-2-morpholin-4-yl-ethyl]-2-methyl-benzamide]
